Measurements reported in US6893664B1, “Particle delivery techniques” (Powderject Research Limited, priority 1996, dated 2005).

How the values were obtained:
Format in all cases: physicochemical
[1] = Densification of excipients, comparison of compacted particles with like weights of non-densified starting materials; settings: compacted at 10,000 lbs/in^2 for 30 seconds, ground, sieved > about 50 μm
Experimental: Finely ground powders of pharmaceutical grade mannitol and lactose were obtained and reprocessed using the method of the invention. Particularly, approximately 30 to 50 mg of mannitol or lactose were compacted under pressure using a Carver Laboratory Pellet Press (Model 3620, available from Carver, Inc., Wabash, Ind.). The pressure of compaction was 10,000 lbs/in^2 which was applied for approximately 30 seconds. The resulting compacted pellets were ground using mortar and pestle until visually broken up, and then sieved to select for particles having a size greater than about 50 μm using the methods described in Example 3.

[2] = Absolute density by helium pycnometry
Experimental: (§1) Trehalose 45H3830 (Sigma) and mannitol K91698380-703 (Merck) were either sieved, or freeze dried, compacted, ground and then sieved. A range of the resulting preparations were then analyzed for particle size and density measurements.
(§2) Portions of each sugar excipient were sieved to obtain preparations having reduced particle sizes. Sieving was carried out using stainless steel sieves for two hours at 3 mm amplitude using three sieve sizes (75 μm, 53 μm and 38 μm) without additional processing.
(§3) Alternatively, portions of each sugar excipient were processed using the methods of the invention as follows. 40 g of each of the sugars was dissolved in water, flash frozen, and then freeze dried over night. Samples of each freeze dried preparation were retained, and the remainder compacted in a 13 mm compression die (15,000 lbs/inch^2 for 45 seconds) into discs. The mannitol discs were ground using mortar and pestle, and then sieved as described above at 3 mm amplitude, using three sieve sizes. The trehalose discs were first ground in a vibratory ball mill (Retsch mill), then ground by mortar and pestle and sieved as above.
(§4) Samples from each of the above-described excipient preparations were then analyzed for absolute and envelope density. Absolute density was determined using helium pycnometry, and envelope density was determined using a GeoPyc™ Model 1360 Envelope Density Analyzer (Micromeritics Instrument Corp.).

[3] = Envelope density by GeoPyc Model 1360 Envelope Density Analyzer; settings: for change of envelope density by compression, milling, sieving: relative to both the freeze-dried and the sieved preparations
Experimental: as §1, §2, §3, §4

[4] = pretreatment: Freeze Dried, Compressed, Milled, Sieved

Structure (SMILES)	size of compacted particles versus like weights of non-densified starting materials [1]	Density Absolute ([2]; pretreatment: Freeze Dried)	Density Absolute [2, 4]	Density Absolute ([2]; pretreatment: Sieved)	Density Envelope ([3]; pretreatment: Freeze Dried)	Density Envelope [3, 4]	Density Envelope ([3]; pretreatment: Sieved)	change of envelope density by compression, milling, sieving [3]
OC[C@@H](O)[C@@H](O)[C@H](O)[C@H](O)CO [Mannitol]	a significant size reduction was observed	1.5 g/mL	1.5 g/mL	1.5 g/mL	0.3 g/mL	0.8 g/mL	0.5 g/mL	significant increase in envelope density
OC[C@H]1O[C@H](O[C@H]2O[C@H](CO)[C@@H](O)[C@H](O)[C@H]2O)[C@H](O)[C@@H](O)[C@@H]1O [Trehalose]		1.5 g/mL	1.5 g/mL	1.5 g/mL	0.3 g/mL	0.8 g/mL	0.5 g/mL	significant increase in envelope density
OC[C@H]1O[C@@H](O[C@H]2[C@H](O)[C@@H](O)C(O)O[C@@H]2CO)[C@H](O)[C@@H](O)[C@H]1O (stereo partly shown) [lactose]	a significant size reduction was observed							
